ChEMBL document CHEMBL4138144, “Biochemometrics to Identify Synergists and Additives from Botanical Medicines: A Case Study with Hydrastis canadensis (Goldenseal)” (J Nat Prod, 2018)
Active and inactive are the calls of the source. The rule behind the calls is not given here.

Key:
Staphylococcus aureus [1] = test: Potentiation of berberin induced antibacterial activity against Staphylococcus aureus SA1199 assessed as berberin MIC at 201.4 uM (reference value: 238 microM); format: functional
Staphylococcus aureus [2] = test: Antibacterial activity against Staphylococcus aureus SA1199 at 201.4 to 402.8 uM after 18 hrs by CLSI method; format: functional, organism-based
Staphylococcus aureus [3] = test: Potentiation of berberin induced antibacterial activity against Staphylococcus aureus SA1199 assessed as berberin MIC at 200 uM (reference value: 238 microM); format: functional

MIC (Staphylococcus aureus [1]) [µM] | MIC (Staphylococcus aureus [3]) [µM] | SMILES | Activity (Staphylococcus aureus [2])
179 |  | COc1ccc(-c2oc3c(C)c(OC)c(C)c(OC)c3c(=O)c2O)cc1O | inactive
 | 119 | O=C(/C=C/C=C/c1ccc2c(c1)OCO2)N1CCCCC1 [PIPERINE] | 
